Experimental data published in PMC6954902 (Protein & Cell, 2019).

Key:
[1] = molecular target: T1, MtEccC2-ATPase3 (Mycobacterium tuberculosis, UniProt O05450)
T1 construct: gene eccC2

[2] = molecular target: T2, MtEccC5-ATPase3 (Mycobacterium tuberculosis, UniProt P9WNA5)
T2 construct: gene eccC5

[3] = molecular target: T3, MtEccC3-ATPase3 (Mycobacterium tuberculosis, UniProt P9WNA9)
T3 construct: gene eccC3
T3 sequence (P9WNA9 1060-1330): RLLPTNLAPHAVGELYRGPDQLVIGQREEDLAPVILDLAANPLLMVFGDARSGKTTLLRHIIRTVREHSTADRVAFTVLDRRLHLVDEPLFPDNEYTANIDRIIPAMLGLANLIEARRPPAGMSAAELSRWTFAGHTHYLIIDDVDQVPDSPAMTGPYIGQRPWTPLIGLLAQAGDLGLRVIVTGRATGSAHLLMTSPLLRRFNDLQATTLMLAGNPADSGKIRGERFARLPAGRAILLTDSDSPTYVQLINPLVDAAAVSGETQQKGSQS

T1 sequence (O05450 1127-1396 limits assumed): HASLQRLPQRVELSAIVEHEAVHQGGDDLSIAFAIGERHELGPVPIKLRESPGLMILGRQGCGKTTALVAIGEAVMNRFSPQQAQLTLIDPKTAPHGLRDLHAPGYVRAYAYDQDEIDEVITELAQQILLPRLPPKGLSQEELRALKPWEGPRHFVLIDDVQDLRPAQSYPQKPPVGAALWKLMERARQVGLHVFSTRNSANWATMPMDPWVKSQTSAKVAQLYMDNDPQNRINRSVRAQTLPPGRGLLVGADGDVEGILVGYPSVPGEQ
T2 sequence (P9WNA5 1125-1391): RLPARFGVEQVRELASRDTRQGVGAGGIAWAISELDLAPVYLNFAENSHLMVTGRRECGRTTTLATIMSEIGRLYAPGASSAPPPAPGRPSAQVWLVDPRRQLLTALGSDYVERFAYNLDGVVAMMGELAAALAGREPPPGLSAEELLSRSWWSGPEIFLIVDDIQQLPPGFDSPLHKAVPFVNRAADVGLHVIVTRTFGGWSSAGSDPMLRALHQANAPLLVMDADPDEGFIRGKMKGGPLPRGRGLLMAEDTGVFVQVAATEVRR

Nc1ncnc2c1ncn2[C@@H]1O[C@H](COP(=O)(O)OP(=O)(O)OP(=O)(O)O)[C@@H](O)[C@H]1O [ATP]
X-ray crystal structure [1]: In our structures, ATP and a magnesium ion bind to the nucleotide-binding site
X-ray crystal structure [2]: In our structures, ATP and a magnesium ion bind to the nucleotide-binding site
X-ray crystal structure [3]: In our structures, ATP and a magnesium ion bind to the nucleotide-binding site
